Measured values taken from patent US20240252488A1 (KOREA RESEARCH INSTITUTE OF CHEMICAL TECHNOLOGY, priority 2020, published 2024).
pKd: −log10 of the molar value.

Columns and labels:
MLKL [1] = target: T1, MLKL (Homo sapiens, UniProt Q8NB16); assay: Measurement of binding affinity with MLKL receptor (competitive binding assay, Kd); set-up: made in house; host or cells: HEK 293 cell line (T7 phage in E. coli BL21-derived host is also described)
T1 sequence (Q8NB16 1-471): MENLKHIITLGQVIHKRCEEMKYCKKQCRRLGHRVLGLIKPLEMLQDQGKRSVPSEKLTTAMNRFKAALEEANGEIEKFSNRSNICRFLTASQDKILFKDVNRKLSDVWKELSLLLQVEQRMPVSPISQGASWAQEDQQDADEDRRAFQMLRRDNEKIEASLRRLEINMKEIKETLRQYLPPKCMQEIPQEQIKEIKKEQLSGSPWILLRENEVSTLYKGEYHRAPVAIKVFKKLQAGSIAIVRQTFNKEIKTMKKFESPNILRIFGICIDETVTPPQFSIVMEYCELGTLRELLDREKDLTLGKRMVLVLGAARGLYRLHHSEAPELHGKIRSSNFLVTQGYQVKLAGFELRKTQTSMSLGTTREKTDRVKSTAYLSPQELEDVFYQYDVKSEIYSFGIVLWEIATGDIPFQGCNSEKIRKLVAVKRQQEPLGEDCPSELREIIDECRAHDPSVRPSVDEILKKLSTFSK
Procedure, shortened: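 HEK 293-expressed, DNA-tagged MLKL; ligand beads blocked with biotin and SeaBlock/1% BSA/0.05% Tween 20/1 mM DTT buffer. Cpd from 111× DMSO stock, 0.9% DMSO final. Eluted kinase by qPCR → Kd.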

MLKL [2] = target: T1, MLKL; assay: MLKL degradation assay in HepG2 cell line (western blot); type: cell-based; set-up: endogenous in cells; host or cells: HepG2 or HaCaT; details: cell line not given; for Degradation assay (Degradation %) 1 μM: compound 1 μM; for Degradation assay (Degradation %) 10 μM: compound 10 μM
Procedure, shortened: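 After treating HepG2 with test compounds (final 1 μM or 10 μM) for 20-24 h, we lysed cells, equalized protein by BCA and probed MLKL by overnight primary antibody at 4 °C followed by chemiluminescent detection.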

FADD−/− Jurkat cells = assay: Necroptosis inhibition assay, TNF-α-induced necroptosis (CellTiter-Glo 2.0); type: cell-based, human; details: TNF-α 15 ng/mL; for Necroptosis inhibition assay (Rescue %) 1 μM: compound 1 μM; for Necroptosis inhibition assay (Rescue %) 10 μM: compound 10 μM
Procedure, shortened: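 Necroptosis was triggered by TNF-α at 15 ng/mL final following 30 minutes of compound exposure (0.1, 1 or 10 μM final). Incubation ran 20 to 24 hours at 37° C under 5% CO2; cell ATP was then quantified by luminescence.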

SMILES | pKd (MLKL [1]) | Degradation assay (Degradation %) 1 μM (MLKL [2]) [%] | Degradation assay (Degradation %) 10 μM (MLKL [2]) [%] | Necroptosis inhibition assay (Rescue %) 1 μM (FADD−/− Jurkat cells) [%] | Necroptosis inhibition assay (Rescue %) 10 μM (FADD−/− Jurkat cells) [%]
Nc1ncc(-c2cnn(C3CCN(CCCCCCCCCCNC(=O)C4CN(c5ccc6nnn(C7CCC(=O)NC7=O)c(=O)c6c5)C4)CC3)c2)nc1C(=O)O[C@@H](C(=O)Nc1ccc(F)cc1)c1ccccc1 (stereo partly drawn) [TDH-178, (R)-2-((4-fluorophenyl)amino)-2-oxo-1-phenylethyl 3-amino-6-(1-(1-(10-(1-(3-(2,6-dioxopiperidin-3-yl)-4-oxo-3,4-dihydrobenzo[d][1,2,3]triazin-6-yl)azetidine-3-carboxamido)decyl)piperidin-4-yl)-1H-pyrazol-4-yl)pyrazine-2-carboxylate] | 7.14 | 72.12 | 84.5 | 24.45 | 28.25
Nc1ncc(-c2cnn(C3CCN(CCCCCCCCCCNc4ccc5nnn(C6CCC(=O)NC6=O)c(=O)c5c4)CC3)c2)nc1C(=O)O[C@@H](C(=O)Nc1ccc(F)cc1)c1ccccc1 (stereo partly drawn) [TDH-179, (R)-2-((4-fluorophenyl)amino)-2-oxo-1-phenylethyl 3-amino-6-(1-(1-(10-((3-(2,6-dioxopiperidin-3-yl)-4-oxo-3,4-dihydrobenzo[d][1,2,3]triazin-6-yl)amino)decyl)piperidin-4-yl)-1H-pyrazol-4-yl)pyrazine-2-carboxylate] | 7.51 | 78.61 | 61.56 | 23.48 | 14.8
Nc1ncc(-c2cnn(C3CCN(CC4CCN(C(=O)COc5cccc6c5C(=O)N(C5CCC(=O)NC5=O)C6=O)CC4)CC3)c2)nc1C(=O)N[C@@H](C(=O)Nc1ccc(F)cc1)c1ccccc1 (stereo partly drawn) [TDH-186, 3-amino-6-(1-(1-((1-(2-((2-(2,6-dioxopiperidin-3-yl)-1,3-dioxoisoindolin-4-yl)oxy)acetyl)piperidin-4-yl)methyl)piperidin-4-yl)-1H-pyrazol-4-yl)-N-((R)-2-((4-fluorophenyl)amino)-2-oxo-1-phenylethyl)pyrazine-2-carboxamide] | 7.12 | 14.8 | 21.54 | 35.73 | 35.74
Nc1ncc(-c2cnn(C3CCN(CC4CCN(C(=O)COc5ccc6c(c5)C(=O)N(C5CCC(=O)NC5=O)C6=O)CC4)CC3)c2)nc1C(=O)N[C@@H](C(=O)Nc1ccc(F)cc1)c1ccccc1 (stereo partly drawn) [TDH-187, 3-amino-6-(1-(1-((1-(2-((2-(2,6-dioxopiperidin-3-yl)-1,3-dioxoisoindolin-5-yl)oxy)acetyl)piperidin-4-yl)methyl)piperidin-4-yl)-1H-pyrazol-4-yl)-N-((R)-2-((4-fluorophenyl)amino)-2-oxo-1-phenylethyl)pyrazine-2-carboxamide] | 6.82 | 27.67 |  | 28.68 | 29.31
Nc1ncc(-c2cnn(C3CCN(C(=O)COCCOCCNC(=O)COc4cccc5c4C(=O)N(C4CCC(=O)NC4=O)C5=O)CC3)c2)nc1C(=O)O[C@@H](C(=O)Nc1ccc(F)cc1)c1ccccc1 (stereo partly drawn) [TDH-188, (R)-2-((4-fluorophenyl)amino)-2-oxo-1-phenylethyl 3-amino-6-(1-(1-(2-(2-(2-(2-((2-(2,6-dioxopiperidin-3-yl)-1,3-dioxoisoindolin-4-yl)oxy)acetamido)ethoxy)ethoxy)acetyl)piperidin-4-yl)-1H-pyrazol-4-yl)pyrazine-2-carboxylate] | 8.46 | 7.04 | 5.3 | 45.68 | 42.08
Nc1ncc(-c2cnn(C3CCN(C(=O)COCCOCCNC(=O)CNc4cccc5c4C(=O)N(C4CCC(=O)NC4=O)C5=O)CC3)c2)nc1C(=O)O[C@@H](C(=O)Nc1ccc(F)cc1)c1ccccc1 (stereo partly drawn) [TDH-190, (R)-2-((4-fluorophenyl)amino)-2-oxo-1-phenylethyl 3-amino-6-(1-(1-(2-(2-(2-(2-((2-(2,6-dioxopiperidin-3-yl)-1,3-dioxoisoindolin-4-yl)amino)acetamido)ethoxy)ethoxy)acetyl)piperidin-4-yl)-1H-pyrazol-4-yl)pyrazine-2-carboxylate] | 7.89 |  | 4.57 | 39.55 | 43.59
Nc1ncc(-c2cnn(C3CCN(C(=O)COCCOCCNC(=O)CNc4ccc5c(c4)C(=O)N(C4CCC(=O)NC4=O)C5=O)CC3)c2)nc1C(=O)O[C@@H](C(=O)Nc1ccc(F)cc1)c1ccccc1 (stereo partly drawn) [TDH-191, (R)-2-((4-fluorophenyl)amino)-2-oxo-1-phenylethyl 3-amino-6-(1-(1-(2-(2-(2-(2-((2-(2,6-dioxopiperidin-3-yl)-1,3-dioxoisoindolin-5-yl)amino)acetamido)ethoxy)ethoxy)acetyl)piperidin-4-yl)-1H-pyrazol-4-yl)pyrazine-2-carboxylate] | 8.31 | 44.99 | 5.25 | 77.85 | 49.93
Nc1ncc(-c2cnn(C3CCN(C(=O)COCCOCCNC(=O)C4CN(c5ccc6c(c5)C(=O)N(C5CCC(=O)NC5=O)C6=O)C4)CC3)c2)nc1C(=O)O[C@@H](C(=O)Nc1ccc(F)cc1)c1ccccc1 (stereo partly drawn) [TDH-193, (R)-2-((4-fluorophenyl)amino)-2-oxo-1-phenylethyl 3-amino-6-(1-(1-(2-(2-(2-(1-(2-(2,6-dioxopiperidin-3-yl)-1,3-dioxoisoindolin-5-yl)azetidine-3-carboxamido)ethoxy)ethoxy)acetyl)piperidin-4-yl)-1H-pyrazol-4-yl)pyrazine-2-carboxylate] | 8.21 |  | 11.22 | 43.97 | 40.55
Nc1ncc(-c2cnn(C3CCN(C(=O)COCCOCCNC(=O)C4CCN(c5cccc6c5C(=O)N(C5CCC(=O)NC5=O)C6=O)CC4)CC3)c2)nc1C(=O)O[C@@H](C(=O)Nc1ccc(F)cc1)c1ccccc1 (stereo partly drawn) [TDH-194, (R)-2-((4-fluorophenyl)amino)-2-oxo-1-phenylethyl 3-amino-6-(1-(1-(2-(2-(2-(1-(2-(2,6-dioxopiperidin-3-yl)-1,3-dioxoisoindolin-4-yl)piperidine-4-carboxamido)ethoxy)ethoxy)acetyl)piperidin-4-yl)-1H-pyrazol-4-yl)pyrazine-2-carboxylate] | 8.17 | 33.12 | 18.24 | 67.94 | 58.3
Nc1ncc(-c2cnn(C3CCN(C(=O)COCCOCCNC(=O)C4CCN(c5ccc6c(c5)C(=O)N(C5CCC(=O)NC5=O)C6=O)CC4)CC3)c2)nc1C(=O)O[C@@H](C(=O)Nc1ccc(F)cc1)c1ccccc1 (stereo partly drawn) [TDH-195, (R)-2-((4-fluorophenyl)amino)-2-oxo-1-phenylethyl 3-amino-6-(1-(1-(2-(2-(2-(1-(2-(2,6-dioxopiperidin-3-yl)-1,3-dioxoisoindolin-5-yl)piperidine-4-carboxamido)ethoxy)ethoxy)acetyl)piperidin-4-yl)-1H-pyrazol-4-yl)pyrazine-2-carboxylate] | 8.16 | 63.85 | 29.78 | 80.66 | 39.24
Nc1ncc(-c2cnn(C3CCN(CCC4CCN(C(=O)C5CCN(c6cccc7c6C(=O)N(C6CCC(=O)NC6=O)C7=O)CC5)CC4)CC3)c2)nc1C(=O)O[C@@H](C(=O)Nc1ccc(F)cc1)c1ccccc1 (stereo partly drawn) [TDH-196, (R)-2-((4-fluorophenyl)amino)-2-oxo-1-phenylethyl 3-amino-6-(1-(1-(2-(1-(1-(2-(2,6-dioxopiperidin-3-yl)-1,3-dioxoisoindolin-4-yl)piperidine-4-carbonyl)piperidin-4-yl)ethyl)piperidin-4-yl)-1H-pyrazol-4-yl)pyrazine-2-carboxylate] | 9.01 | 62.01 | 51.12 | 60.75 | 34
